{"source": "patent US20060168675A1", "about": "“Novel polypetide having function of 7-keto-8-aminopelargonic acid synthase of plant and method for inducing growth inhibition and lethality by suppressing expression of the polypeptide” (GENOMINE, INC, priority 2002, published 2006)", "key": {"[1]": {"tested_on": "transgenic Arabidopsis thaliana comprising antisense construct of AtKAPAS gene", "settings": "pots filled with sands containing 1 mM biotin; Basta treated 5 times; transformed seeds", "procedure": "The pots were treated with Basta 5 times, and then investigated for the growth of Arabidopsis thaliana in every pot."}, "[2]": {"target": "KAPA syntase of Bacillus sphaericus (Lysinibacillus sphaericus, UniProt P22806)", "sequence (P22806 whole entry)": "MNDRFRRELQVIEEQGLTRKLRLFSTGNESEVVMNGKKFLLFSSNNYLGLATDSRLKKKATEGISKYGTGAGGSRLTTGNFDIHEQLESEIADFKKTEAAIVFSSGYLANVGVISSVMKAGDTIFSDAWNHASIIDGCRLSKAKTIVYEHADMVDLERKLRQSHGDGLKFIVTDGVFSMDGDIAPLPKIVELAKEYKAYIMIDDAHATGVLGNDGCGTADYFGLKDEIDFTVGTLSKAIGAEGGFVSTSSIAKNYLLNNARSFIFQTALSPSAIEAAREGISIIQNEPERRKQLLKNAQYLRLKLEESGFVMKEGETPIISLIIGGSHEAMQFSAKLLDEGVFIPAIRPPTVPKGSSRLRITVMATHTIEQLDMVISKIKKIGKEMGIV", "settings": "read-out: Km value to pimeroyl CoA; KAPA synthase of Bacillus sphaericus; cited from earlier work"}, "KAPA syntase of E. coli": {"target": "KAPA syntase of E. coli (Escherichia coli, UniProt P12998)", "sequence (P12998 whole entry)": "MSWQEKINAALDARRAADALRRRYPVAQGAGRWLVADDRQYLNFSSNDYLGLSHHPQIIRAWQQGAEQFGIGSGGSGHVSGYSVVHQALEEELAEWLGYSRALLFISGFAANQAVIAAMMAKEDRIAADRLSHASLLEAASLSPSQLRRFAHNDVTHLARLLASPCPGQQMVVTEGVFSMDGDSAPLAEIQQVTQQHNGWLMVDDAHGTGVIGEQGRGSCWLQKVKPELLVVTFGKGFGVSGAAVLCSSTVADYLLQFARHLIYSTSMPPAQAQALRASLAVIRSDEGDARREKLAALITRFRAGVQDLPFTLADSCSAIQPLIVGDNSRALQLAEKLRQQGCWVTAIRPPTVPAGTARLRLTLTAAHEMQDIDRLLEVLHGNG", "settings": "KAPA synthase of E. coli; read-out: Km value to pimeroyl CoA; cited from earlier work"}, "[3]": {"target": "T1, protein expressed by AtKAPAS gene (KAPA synthase) (Arabidopsis thaliana, UniProt Q8GW43, DEL236-242/L243I)", "T1 construct": "contains 1410 bp size open reading frame encoding 469 amino acids; made in house; host or cells: E. coli BL21-Gold(DE) transformed with pCKAPA (AtKAPAS cDNA in pCAL-n)", "T1 sequence (Q8GW43 other isoform, or with tags, fused parts or gaps DEL236-242/L243I)": "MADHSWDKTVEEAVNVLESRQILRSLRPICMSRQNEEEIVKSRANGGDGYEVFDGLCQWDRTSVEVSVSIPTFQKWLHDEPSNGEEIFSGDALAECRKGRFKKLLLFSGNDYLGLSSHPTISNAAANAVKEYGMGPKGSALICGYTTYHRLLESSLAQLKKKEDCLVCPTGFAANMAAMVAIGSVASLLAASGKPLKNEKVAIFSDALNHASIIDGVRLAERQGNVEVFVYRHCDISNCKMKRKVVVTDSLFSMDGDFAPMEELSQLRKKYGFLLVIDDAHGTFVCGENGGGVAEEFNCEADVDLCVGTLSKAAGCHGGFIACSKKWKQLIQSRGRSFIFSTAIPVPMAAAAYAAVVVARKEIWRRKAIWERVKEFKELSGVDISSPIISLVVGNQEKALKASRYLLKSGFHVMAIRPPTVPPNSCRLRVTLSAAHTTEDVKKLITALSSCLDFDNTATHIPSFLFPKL", "format": "biochemical", "settings": "substrate pimeroyl CoA, Lineweaver-Burk plot, 30° C., pH 7.5, 340 nm", "procedure": "The enzyme activity of the protein was measured at 340 nm using a spectrophotometer (Backman DU series 60 spectrophotometer) adjusted at 30° C. according to a method of Alexeev et al.(Alexeev et al. J. Mol. Biol., 284:401-419, 1998). […] In every reaction solution, the concentration of the protein was 10 μM. L-alanine and pimeroyl CoA were also added into each reaction solution ([…]). Results were analyzed using the Soft-Pac Module kinetics software. Before the analysis, enzyme samples were dialyzed with 20 mM potassium phosphate buffer (pH 7.5) containing 100 μM PLP (pyridoxal 5′-phosphate) at 4° C. for 2 hours. The cuvette containing other substances but the purified protein was used as a control group for the measurement of the enzyme activity.\nThe changes of reaction speed according to substrate concentration were measured, and then represented by Lineweaver-Burkes plot (see FIG. 4)."}}}
{"molecule": "O=C(O)CCCC[C@@H]1SC[C@@H]2NC(=O)N[C@@H]21", "note": "[biotin]", "values": [{"measurement": "Individual plants grown up", "setting": "[1]", "value": 16}]}
{"molecule": "CC(C)(COP(=O)(O)OP(=O)(O)OC[C@H]1O[C@@H](n2cnc3c(N)ncnc32)[C@H](O)[C@@H]1OP(=O)(O)O)[C@@H](O)C(=O)NCCC(=O)NCCSC(=O)CCCCCC(=O)O", "note": "[pimeroyl CoA, pimeloyl CoA]", "values": [{"measurement": "Km", "setting": "[2]", "value": 2500, "unit": "µM"}, {"measurement": "Km", "setting": "KAPA syntase of E. coli", "value": 500, "unit": "µM"}, {"measurement": "Km", "setting": "[3]; read-out: Km value", "value": 0.54, "unit": "µM"}, {"measurement": "Vmax value", "setting": "[3]", "value": 7.93}]}
